Measurements published in US20090253634A1, “Methods and Compositions for the Treatment of Gastrointestinal Disorders” (MICROBIA, INC., priority 2005, published 2009).
Like-named read-outs stand apart in the source and are kept apart here. Bridge positions count the residues as written; N and C are the ends. Peptide text beside a SMILES is read from it.

Legend:
gastrointestinal transit = assay: murine gastrointestinal transit (GIT) assay, acute and chronic dosing; type: in vivo, mice
Procedure: In order to determine whether the peptides increase the rate of gastrointestinal transit, the peptides and controls were tested using a murine gastrointestinal transit (GIT) assay (Moon et al. Infection and Immunity 25:127, 1979). In this assay, charcoal, which can be readily visualized in the gastrointestinal tract is administered to mice after the administration of a test compound. The distance traveled by the charcoal is measured and expressed as a percentage of the total length of the […].
Mice were fasted with free access to water for 12 to 16 hours before the treatment with peptide or control buffer. The peptides were orally administered at 1 μg/kg-1 mg/kg of peptide in buffer ([…] pH 7.5) 7 minutes before being given an oral dose of 5% Activated Carbon (Aldrich 242276-250G). Control mice were administered buffer only before being given a dose of Activated Carbon. After 15 minutes, the mice were sacrificed and their intestines from the stomach to the cecum were dissected. The total length of the intestine as well as the distance traveled from the stomach to the charcoal front was measured for each animal and the results are expressed as the percent of the total length of the intestine traveled by the charcoal front. All results are reported as the average of 10 mice±standard deviation. A comparison of the distance traveled by the charcoal between the mice treated with peptide versus the mice treated with vehicle alone was performed using a Student's t test and a statistically significant difference was considered for P<0.05. P-values are calculated using a two-sided T-Test assuming unequal variances.
The identical experiment was performed to determine if SEQ ID NO:3 is effective in a chronic dosing treatment regimen. Briefly, 8 week old CD1 female mice are dosed orally once a day for 5 days with either SEQ ID NO:3 (0.06 mg/kg or 0.25 mg/kg in 20 mM Tris pH 7.5) or vehicle alone (20 mM Tris pH 7.5). On the 5th day, a GIT assay is performed identical to that above except 200 μl of a 10% charcoal solution is administered. […] The results are shown side by side with acute dosing (1 day).

[1] = oral bioavailability in rats, radioimmunoassay (RIA) detection; conditions: female, CD, rat, in vivo
Procedure: Oral bioavailability was also determined using a radioimmunoassay (RIA) detection method. Female CD-1 mice (Charles River, Wilmington, Mass.) weighing approximately 25g (7-8 weeks old) or female CD rats (Charles River, Wilmington, Mass.) weighing approximately 153 g were included in this study. Monoclonal antibody, 20C1 (Brandwein et al. 1985 Infect Immun. 47:242-246), which recognizes SEQ ID NO:7 and ^125I labeled-SEQ ID NO:7, a labeled tracer, were used in these experiments. The labeled tracer was purified by HPLC using a Waters C-18u Bondapak® column (25 cm) previously equilibrated with 10 mM ammonium acetate pH 5.8. A gradient from 0 to 25% acetonitrile was applied to the column in 60 min, followed by isocratic elution at 25% acetonitrile for another 20 min. This method separated two monoiodinated forms from each other and from unlabeled precursor (Thompson et al. 1985 Anal Biochem. 148:26-36). […] The labeled tracer bad a specific activity of 2200 Ci/mmol. The tracer was stored in aliquots at −20° C. Animals were fasted overnight before administration of compounds. Animals received SEQ ID NO:3 (rats—10 mg/kg; mice 8 mg/kg) or vehicle alone (20 mM Tris-HCl, ph7.5) intravenously or orally. Blood was drawn from all dosed animals by retro-orbital eye bleeding at specific intervals and test compound levels were analyzed by radioimmunoassay (RIA). SEQ ID NO:3 was extracted from the serum or plasma using Amersham Biosciences Amprep C18 columns (100 mg). Samples (80 μL) were first diluted to 0.5 mL with start buffer (8% methanol, 0.095% TFA in water) and applied to C18 columns previously conditioned with 1 mL methanol and equilibrated with 2 mL of start buffer. […] Radioactivity was measured in a LS 6500 scintillation counter (Beckman-Coulter). The binding efficiency is defined as the percent radioactivity in the B0 sample compared to the input counts. The percent bound in each sample was calculated by the equation: […]
A standard curve was prepared by plotting % B/B0 as a function of the log SEQ ID NO:3 concentration. […] Oral Bioavailabilty (F) is calculated using the equation: […]

C[C@@H]1NC(=O)[C@@H]2CCCN2C(=O)[C@H](CC(N)=O)NC(=O)[C@@H]2CSSC[C@H](N)C(=O)N[C@H]3CSSC[C@H](NC1=O)C(=O)N[C@@H]([C@@H](C)O)C(=O)NCC(=O)N[C@H](C(=O)N[C@@H](Cc1ccc(O)cc1)C(=O)O)CSSC[C@H](NC(=O)[C@H](Cc1ccc(O)cc1)NC(=O)[C@H](CCC(=O)O)NC3=O)C(=O)N2 [SEQ ID NO:3] (H-CCEYCCNPACTGCY-OH; disulfide 1-6, 2-10, 5-13; N-terminus and C-terminus assumed)
intestinal transit rates versus Tris buffer or equivalent dose of Zelnorm (gastrointestinal transit; acute, chemically synthesized peptides, FIG. 4b): increase intestinal transit rates more than either Tris buffer alone or an equivalent dose of Zelnorm®
gastrointestinal transit rate (gastrointestinal transit; acute, oral, SEQ ID NO:4 and Zelnorm 0.1 mg/kg, FIG. 3a, 3b): increase gastrointestinal transit rate
effect in mouse gastrointestinal motility assay upon chronic dosing (gastrointestinal transit; oral once a day for 5 days, SEQ ID NO:3 0.06 or 0.25 mg/kg, FIG. 4c): effective
AUC ([1]; 10 mg/kg intravenous, read-out: AUCi.v.,(0-6h) (converted)): 23700 ng·h/mL
AUC ([1]; 10 mg/kg oral, read-out: AUCp.o.,(0-6h) (converted)): 48.3 ng·h/mL
bioavailability ([1]; oral, 10 mg/kg, over 6 hours): 0.2%
